From article PMC9738062, “Selectively Halogenated Flavonolignans—Preparation and Antibacterial Activity” (International Journal of Molecular Sciences, 2022)

How the values were obtained:
[1] = system: pooled male rat microsomal liver membranes; experiment: Inhibition of lipid peroxidation induced by tert-butyl hydroperoxide; assay type: biochemical; conditions: male rat microsomes, read-out: ILP IC50
Method: (§1) The antiradical activity was evaluated by the ability to scavenge ABTS and DPPH radicals. Reducing capacity was assessed by the ability to reduce the Folin–Ciocalteu reagent (FCR) and ferric ions (FRAP). The ability to inhibit lipid peroxidation of pooled male rat microsomal liver membranes induced by tert-butyl hydroperoxide was also evaluated and the results were expressed as IC50 values.

[2] = system: multidrug-resistant P. aeruginosa; experiment: Sensitization of antibiotic-resistant bacteria (compound plus breakpoint antibiotic concentration); assay type: cell-based, Pseudomonas aeruginosa; conditions: for Effect on viability in combination with colistin: colistin 2 mg/L; for Effect on viability in combination with colistin / Effect on viability in combination with imipenem: flavonoid 40 µM, 24 h; for Effect on viability in combination with imipenem: imipenem 4 mg/L; as to Effect on viability in combination with imipenem: key: -: no effect (100% viability) was observed up to the highest flavonolignan concentration tested (>40 µM); reversion of resistance: the compound reversed the resistant phenotype to a sensitive one
Method: Clinically relevant antibiotics were selected for sensitization testing according to the European Committee on Antimicrobial Susceptibility Testing (EUCAST). Neither colistin and imipenem at breakpoint concentrations (according to EUCAST, […] and […]) affected the growth of the multidrug-resistant clinical strain of P. aeruginosa. Similarly, neither chloramphenicol and gentamicin at breakpoint concentrations ([…], respectively) affected the multidrug-resistant clinical strain of S. aureus. Flavonoids and their derivatives (1–40 µM) were used in combination therapy, along with the breakpoint concentration of antibiotics. After co-incubation, the minimum inhibitory concentration of flavonoids inhibiting the visible growth of bacteria was determined (Table 2).
Clinical isolates of P. aeruginosa and S. aureus were obtained from the General University Hospital in Prague (Prague, Czech Republic). P. aeruginosa was resistant to ciprofloxacin, oxacillin, ticarcillin, colistin, gentamicin, and imipenem. S. aureus was resistant to ciprofloxacin, gentamicin, erythromycin, chloramphenicol, clindamycin, oxacillin, cefotaxime, and vancomycin. Bacteria were cultivated in Mueller–Hinton broth (MH broth, Merck). The susceptibility of the bacteria was evaluated by the minimum inhibitory concentrations (MIC). The MIC of derivatives in the presence of the antibiotic cut-off concentration was determined according to ISO 20776-1: 2020. The antibiotic cut-off concentration was chosen according to the European Committee on Antimicrobial Susceptibility Testing (EUCAST, Clinical breakpoints—bacteria (ver. 11.0), 1 January 2021). The 40 µM concentration of the derivatives was chosen as the highest concentration for the tests. Cell viability was determined by measuring absorbance (A590 nm) after 24 h incubation at 37 °C, 150 rpm.

[3] = Folin-Ciocalteu reagent reduction; conditions: gallic acid equivalents
Method: To further elucidate how halogenation affects other properties of the flavonoids studied, their 2,2′-azino-bis-(3-ethylbenzothiazoline-6-sulfonic acid) cation (ABTS) and 1,1-diphenyl-2-picrylhydrazyl (DPPH) radical scavenging, the Folin–Ciocalteu reagent (FCR) reducing, the ferric-reducing antioxidant power (FRAP), and the anti-lipoperoxidation activities were evaluated by in vitro methods (Supplementary Information Tables S1 and S2).
as §1

[4] = system: human dermal fibroblasts (HDF); experiment: Cytotoxicity (resazurin assay, 72 h); assay type: cell-based; conditions: Fibroblast
Method: (§2) The cytotoxicity of flavonoids and their halogenated derivatives was determined as their ability to decrease the viability of human dermal fibroblasts (HDF) and doxorubicin-resistant human ovarian carcinomas (HOC/DOX). Both cell lines were cultivated in Dulbecco’s Modified Eagle’s Medium supplemented with fetal bovine serum (FBS, 10% v/v) and 1 × antibiotic antimycotic solution and incubated at 37 °C in the atmosphere of 5% CO2. The experiment was performed according to a previously published method. Briefly, 1 × 10^5 cells/mL were seeded into a 96-well plate (100 µL/well). After 24 h, flavonoids and their derivatives were administered at the concentration range of 31.25–500 µM. After 72 h, the viability was determined by resazurin assay (0.03 mg/mL of resazurin in PBS), where the fluorescence was measured after 2 h of incubation by the SpectraMax i3x microplate reader at a wavelength of 560/590 nm (excitation/emission). The concentration inhibiting half of the population (IC50) was determined using nonlinear regression in GraphPad Prism software. The selectivity index was calculated as the ratio between the IC50 for HDF (control, non-cancerous cells) and the IC50 for HOC/DOX (cancer cells).

[5] = system: doxorubicin-resistant human ovarian carcinoma (HOC/DOX); experiment: Cytotoxicity (resazurin assay, 72 h); assay type: cell-based; conditions: for IC50: Homo sapiens, 72 h, resazurin assay; for SI (selectivity index): ratio IC50 for HDF / IC50 for HOC/DOX
Method: as §2

[6] = system: lipopolysaccharide-stimulated macrophages (RAW 264.7); experiment: Inhibition of nitric oxide production (Griess reagent); assay type: cell-based, murine; conditions: Mus musculus, RAW264.7; LPS 100 ng/mL, 24 h; highest tested concentration 100 µM; read-out: NO Production IC50
Method: The anti-inflammatory activity of the tested flavonolignans was determined as the ability to reduce nitric oxide production by murine macrophages (RAW 264.7) stimulated by bacterial lipopolysaccharides, as previously described. […] For the experiment, 1 × 10^6 cells/mL was seeded into the 96-well plate (100 µL/well). […] After 24 h, the medium was mixed with Griess reagent (0.04 g/mL), prepared freshly in deionized water at the ratio of 1:1. The absorbance was measured after 15 min at 540 nm by the SpectraMax i3x microplate reader. Cell viability was determined by resazurin assay.

Structure (SMILES)	IC50 [1] [µM]	Effect on viability in combination with colistin [2]	Effect on viability in combination with imipenem [2]	FCR [GAE] [3] [GAE]	IC50 [4] [µM]	IC50 [5] [µM]	SI (selectivity index) [5]	IC50 [6] [µM]	Colistin-resistant phenotype of P. aeruginosa (result in words) ([2]; colistin breakpoint concentration)
O=C1c2c(O)cc(O)cc2OC(c2ccc(O)c(O)c2)C1O (centres unmarked) [compound 1, taxifolin, reference compound]	16.3 ± 1.1	-	-	1.92 ± 0.05	93.8 ± 3.7	183	0.51	52.4 ± 1.2	
COc1cc([C@H]2Oc3cc([C@H]4Oc5c(Br)c(O)c(Br)c(O)c5C(=O)[C@@H]4O)ccc3O[C@@H]2CO)ccc1O [compound 12, 6,8-dibromosilybin A]	710	-	-	0.85 ± 0.03	102	304	0.34	73.9 ± 5.8	
COc1cc([C@@H]2Oc3c(O)cc([C@H]4Oc5cc(O)cc(O)c5C(=O)[C@@H]4O)cc3[C@H]2CO)ccc1O [compound 5, silychristin A, reference compound]	129	-	-	1.87 ± 0.07	115	205	0.56	72.5 ± 5.4	
COc1cc([C@@H]2Oc3cc([C@H]4Oc5c(Br)c(O)c(Br)c(O)c5C(=O)[C@@H]4O)ccc3O[C@H]2CO)cc(Br)c1O [compound 22, 6,8,21-tribromosilybin B]	255	-	-	1.01 ± 0.04	85.8 ± 1.1	183	0.47	> 100	
COc1cc([C@@H]2Oc3cc([C@H]4Oc5c(Br)c(O)c(Br)c(O)c5C(=O)[C@@H]4O)ccc3O[C@H]2CO)ccc1O [compound 14, 6,8-dibromosilybin B]	378	-	-	1.10 ± 0.05	128	231	0.55	90.4 ± 4.6	
COc1cc([C@H]2Oc3cc([C@H]4Oc5cc(O)c(Br)c(O)c5C(=O)[C@@H]4O)ccc3O[C@@H]2CO)ccc1O [compound 11, 6-Bromosilybin A]	449	-	-	1.06 ± 0.04	95.6 ± 3	186	0.51	40 ± 3.4	
O=C1c2c(O)c(Br)c(O)c(Br)c2O[C@H](c2ccc(O)c(O)c2)[C@H]1O [compound 8, 6,8-dibromotaxifolin]	22.5 ± 1	-	-	2.08 ± 0.04	158	233	0.68	62.2 ± 4.2	
COc1cc(C2Oc3cc(-c4oc5c(Br)c(O)cc(O)c5c(=O)c4O)ccc3OC2CO)ccc1O (centres unmarked) [compound 16, 8-bromo-2,3-dehydrosilybin AB]	49.2 ± 1.9	reversion of resistance	-	1.56 ± 0.03	16.9 ± 0.6	39.4 ± 3.4	0.43	> 25	reversed the colistin-resistant phenotype in P. aeruginosa to a sensitive one
COc1cc([C@@H]2Oc3cc([C@H]4Oc5cc(O)cc(O)c5C(=O)[C@@H]4O)ccc3O[C@H]2CO)ccc1O [3b, silybin B, reference compound]	291	-	-	1.39 ± 0.08	83.3 ± 5.4	202	0.41	55.6 ± 5.5	
O=c1c(O)c(-c2ccc(O)c(O)c2)oc2cc(O)cc(O)c12 [compound 2, quercetin, reference compound]	39 ± 2.9	-	-	2.33 ± 0.05	54.8 ± 2.7	182	0.30	14.6 ± 2.1	
COc1cc(C2Oc3cc(-c4oc5cc(O)cc(O)c5c(=O)c4O)ccc3OC2CO)ccc1O (centres unmarked) [compound 4, 2,3-dehydrosilybin AB, reference compound]	34.6 ± 2.3	-	-	1.68 ± 0.03		23.5 ± 1.5	0.71	27.9 ± 0.5	
COc1cc([C@@H]2Oc3c(O)cc(-c4oc5cc(O)cc(O)c5c(=O)c4O)cc3[C@H]2CO)ccc1O [compound 6, 2,3-dehydrosilychristin A, reference compound]	51.9 ± 2.2	-	-	2.43	44.2 ± 2.1	75.7 ± 8.6	0.58	42.1 ± 2.7	
O=c1c(O)c(-c2ccc(O)c(O)c2)oc2c(Br)c(O)cc(O)c12 [compound 9, 8-bromoquercetin]	38.3 ± 1.9	-	-	2.01 ± 0.06	132	171	0.77	> 100	
O=C1c2c(cc(O)c(Br)c2O)O[C@H](c2ccc(O)c(O)c2)[C@H]1O [compound 7, 6-Bromotaxifolin]	201	-	-	1.70 ± 0.01	122	347	0.35	78.4 ± 7.8	
COc1cc([C@@H]2Oc3c(O)cc(-c4oc5c(Br)c(O)cc(O)c5c(=O)c4O)cc3[C@H]2CO)ccc1O [compound 18, 8-Bromo-2,3-dehydrosilychristin A]	60.1 ± 2.7	-	-	2.22	66.7 ± 5.6	209	0.32	32.6 ± 1.8	
COc1cc([C@H]2Oc3cc([C@H]4Oc5c(Br)c(O)c(Br)c(O)c5C(=O)[C@@H]4O)ccc3O[C@@H]2CO)cc(Br)c1O [compound 21, 6,8,21-tribromosilybin A]	213	-	-	0.99 ± 0.02	75 ± 2.4	201	0.37	70.4 ± 1.7	
